Marks after values point to notes of the source that are not given here.
Tests used:
[1] = tested on: GABAARs; test: Whole-cell voltage-clamped recordings from hippocampal DGCs in slices (Itonic, mIPSCs); assay type: cell-based, rats; settings: for GABAergic Itonic: basal Itonic 20 pA
From the text: 2) Whole-Cell Patch-Clamp Recordings from Brain Slices. Transverse slices (400 lm) of dorsal hippocampus were obtained from wt and TG-SwDI mice (male, 20 months old) using a vibratome (VT 100; Technical Products International). Slices were perfused continuously with artificial CSF (ACSF) composed of the following (in mM): 125 NaCl, 2.5 KCl, 2 CaCl2, 2 MgCl2, 26 NaHCO3, and 10 D-glucose. The ACSF was bubbled continuously with 95% O2/5% CO2 to ensure adequate oxygenation of slices and a pH of 7.4 and kept at 34±0.5° C. for perfusion. TTX (0.5 μM), APV (40 μM), CNQX (10 μM), and CGP54626 (1 μM, GABABR antagonist) were added to ACSF to pharmacologically isolate GABAAR-mediated mIPSCs. Patch electrodes were filled with internal solution containing the following (in mM): 137 CsCl, 2 MgCl2, 1 CaCl2, 11 EGTA, 10 HEPES, and 3 ATP, pH adjusted to 7.30 with CsOH. Recordings targeted dentate gyms granule cells (DGCs) of hippocampal slices. Voltage-clamp whole-cell recording was performed using a patch clamp amplifier 3) EPM: All animals were tested anxiety levels on EPM. Animals were placed on the central area of the maze, tested for 5 min and video recorded. The following measures were scored: number of entries into open arms, closed arms, or center platform and time spent in each of these areas. Data were reported as % of number of entries in arms, % of time spent in different entries, and number of total entries.
To evaluate whether DHM-Piperidine Complex (D-P) can still potentiate GABAARs, whole-cell voltage-clamped recordings from hippocampal DGCs in slices were performed to test D-P and compared with DHM effects on GABAergic tonic current (Itonic) and miniature inhibitory postsynaptic currents (mIPSCs). […] Compared with DHM enhancing GABAergic Itonic from 20 pA (basal Itonic)→28 pA→31 pA→52 pA→55 pA, D-P enhancing GABAergic Itonic from 20 pA (basal Itonic)→35 pA→42 pA →65 pA→70 pA (Table 1).

[2] = tested on: TG-mice; test: Novel context recognition (NCR); assay type: in vivo; settings: 1 mg/kg oral, 3 months, untreated TG 49.2±2.6%
Protocol: Novel context recognition (NCR): Day 1-3 was Habituation (once/day). Two contexts (containers) A and B with similar field area were very different in shape. Context A was a rectangular, Context B was a circular container. The containers were open at the top with bedding to minimize stress and with video camera on top to record animal behavior. Each animal was placed in Context A without toys for 5 min, then back to home cage for 30 min. Then the animal was placed in Context B without toys for 5 min.
Day 4 was for Familiarization: Two different sets of toys were used as the familiar objects referred to as FO1 and FO2 respectively. […]
Day 5 (24 h from familiarization): Retention Trials was performed to determine the memory retention of each animal for familiarized objects. […] The test was videotaped and analyzed offline. The time spent exploring the familiar object (FO1) and exchanged object (FO2) were calculated where exploration equals touching the object with nose or paws or sniffing within 1.5 cm of the object. […]
(§1) Mice were divided into four groups: (1) C57BL/6 wt male mice were treated with oral administration of 2% sucrose; (2) C57B1/6 wt male mice with oral administration of 1 mg/kg D-P in 2% sucrose; (3) TG-mice with oral administration of 2% sucrose; and (4) TG-mice with 1 mg/kg D-P in 2% sucrose. […] Next, we evaluated NCR (FIG. 3C). The RI was calculated.

[3] = tested on: TG-mice; test: Novel Object Recognition (NOR); assay type: in vivo; settings: 1 mg/kg oral in 2% sucrose, 3 months, untreated TG 51.2±3.6%, wt 68.9±6.8%
Protocol: 4) Memory Test Protocol. Novel Object Recognition (NOR): Day 1-3: Habituation (once/day). Top open containers (open field) were used with video camera to record animal behavior. An animal was put into a container with no objects for 5 min. Context remained the same for each animal.
Day 4, Familiarization: Two identical objects (toys-FO: familiar object) were put into the container at specific positions. Then animals were put into the container to explore the objects for 5 min. Retention Trial 1.5 h: Each animal was placed in its home cage for 1.5 h after the familiarization. One of the toys was replaced with a new toy (NO, novel object and very different from FO). […]
Day 5, Retention Trial 24 h: We placed another new toy (NO) along with an original object (FO) in the container. […] We scored the animal behavior offline according to how long the animal spent exploring each object. The Object Recognition Index (ORI) was calculated, such that ORI=(tn−tf)/(tn+tf), where tf and tn represent times of exploring the familiar and novel objects, respectively.
as §1

## piperidin-1-ium (2R,3R)-2-(3,4-dihydroxy-5-oxidophenyl)-3,5-dihydroxy-4-oxochroman-7-olate [D-P]
[1]; 0.1 μM
  Itonic, percent in brackets (increase over basal): (75%)*
  mIPSCs (area potentiated): 16.7%*
  GABAergic Itonic: 35 pA
[1]; 0.3 μM
  Itonic, percent in brackets (increase over basal): (110%)*
  mIPSCs (area potentiated): 23.3%*
  GABAergic Itonic: 42 pA
[1]; 1 μM
  Itonic, percent in brackets (increase over basal): (225%)*
  mIPSCs (area potentiated): 100.0%*
  GABAergic Itonic: 65 pA
[1]; 10 μM
  Itonic, percent in brackets (increase over basal): (250%)*
  mIPSCs (area potentiated): 133.3%*
  GABAergic Itonic: 70 pA
[2]
  Recognition Index (RI), novel context: reversed the RI in TG-mice
[3]
  Object Recognition Index (ORI): 70.1±6.8%

Source: patent publication US12194021B2, “Modified herbal compositions for neuromodulation” (University of Southern California, priority 2021, dated 2025)
